From patent US20260001949A1, “NEUTRALIZATION OF ACYL-COA BINDING PROTEIN FOR THE TREATMENT OF CARDIAC DYSFUNCTION” (INSERM (INSTITUT NATIONAL DE LA SANTÉ ET DE LA RECHERCHE …, priority 2022, published 2026)

Assays:
[1] = tested on: doxorubicin (DOX)-treated C57Bl/6J female mice; experiment: Anthracycline (doxorubicin)-induced cardiotoxicity model, echocardiography and organ weights; assay type: in vivo; conditions: chronic DOX, cumulative dose 20 mg/kg body weight IP over 4 weeks, vs saline
Procedure: Cardiac toxicity experiments: Eight-week-old C57Bl/6J female mice were purchased from Envigo (Gannat, France). Following 2 weeks of acclimatization, mice were randomized (1:1) to receive either mouse monoclonal anti-ACBP-neutralizing antibody (5 mg/kg body weight, injected intraperitoneally once per week) or mouse isotype IgG (negative control; 5 mg/kg body weight). Each group was further randomized (1:1) to receive a weekly intraperitoneal injection of saline or doxorubicin (5 mg/kg body weight; cumulative dose of 20 mg/kg body weight over 4 weeks) (Sigma, #MKCM8540). Of note, anti-ACBP was always administered 24 hours prior to doxorubicin injection. All mice used in this study were housed in a temperature-controlled environment with 12 h light/dark cycles and ad libitum access to food and water.
Echocardiography. Mice were lightly anesthetized (5% for induction; 1.5% isoflurane for maintenance) and body temperature was kept at 37° C. using a temperature-controlled heating platform. […] Ejection fraction was determined to assess systolic function, while diastolic function was evaluated using the ratio between peak early-filling velocity of transmitral flow (E) and the corresponding mitral valve annulus velocity (e′) determined using pulsed-wave and tissue Doppler imaging, respectively. […]

p21 = experiment: Immunostaining of senescence marker p21 in cardiac sections of doxorubicin-treated mice; assay type: in vivo; conditions: DOX cumulative 20 mg/kg over 4 weeks; vs saline; FIGS. 2A-2B
Procedure: Immunohistochemistry of p21: On the day of euthanasia, left ventricles were briefly rinsed with PBS and fixed for 16-24 h in a 4% formaldehyde solution (F8775, Sigma, diluted in PBS, pH=7.4). After fixation, tissues were transferred to 70% ethanol until inclusion in paraffin. Paraffin-embedded tissue were cut to 2-3 μm sections, air dried and let to dry completely at 60° C. overnight. Cell Conditioning 1 buffer (64/457,5001, Roche) was used for antigen retrieval, and casein (ref: 760-219, Roche) was used as blocking agent. The antibody directed against p21 (clone HUGO 291H/B5, CNIO) was diluted 1:50 in EnVision FLEX Antibody Diluent (K800621, Dako-Agilent). Staining was performed on the Ventana discovery XT platform for 60 minutes (ready-to-use). […] The specificity of the staining was assessed in each organ by using rat IgG isotype control (6-001-F, R&D Systems) as primary antibody.
Quantification of the p21 staining was done on the QuPath analysis software after blinding the samples names. […] Non-cardiomyocytes regions were excluded from the area of analysis and, after color deconvolution, a threshold was applied to automatically quantify the p21+ cardiomyocytes area. The average value in the 10 regions of interest was plotted for each animal, and analyzed by two-way ANOVA to determine the effect of doxorubicin treatment, ACBP/DBI neutralization, and their interaction.

- p21 staining in cardiomyocytes (p21): increased the presence of p21 staining
SMILES: COc1cccc2c1C(=O)c1c(O)c3c(c(O)c1C2=O)C[C@@](O)(C(=O)CO)C[C@@H]3O[C@H]1C[C@H](N)[C@H](O)[C@H](C)O1 [DOX, doxorubicin]
- left ventricular ejection fraction ([1]; FIG. 1B): clearly reduced
- ventricular dilation ([1]; FIG. 1C): causing ventricular dilation
